{"source": "patent US20250282770A1", "about": "“BIOLUMINESCENT PROBES TO TRACK STEM CELLS IN VIVO” (THE BOARD OF TRUSTEES OF THE UNIVERSITY OF ILLINOIS, priority 2024, published 2025)", "key": {"[1]": {"assay": "Evaluation of acetal response to 1 M HCl", "type": "physicochemical", "conditions": "100 μM; 1 M HCl for one hour; ALDH1A1 0.4 μM; compared among 9, 10, 11", "procedure": "Evaluation of Acetal Response to 1 M HCl. To identify the most robust turn-on to be utilized for this study, compounds 9, 10, and 11 were tested for their ability to be deprotected under acidic conditions. Each acetal was dissolved in DMSO and subjected to equal-volume 1 M HCl and incubated at room temperature for 60 minutes. After this time, each solution was neutralized with 1 M NaOH and diluted to a concentration of 1 mM with PBS. In a black 96-well plate, PBS, NAD^+ (2.5 mM), ALDH1A1 (0.4 μM), and either compound 9, 10 or 11 (100 μM) were added. After 5 minutes, each well was treated with ATP-MgSO4 (45 μL, prepared by mixing 17.78 mM ATP-Mg and 35.56 mM MgSO4 in a 1:1 ratio in PBS buffer) and luciferase (5 μL, 1 mg/mL in PBS containing 10% glycerol) to initiate bioluminescence production. Light was collected immediately after mixing, and the signal enhancement was determined relative to control wells containing no probe or enzymes. The total volume of each well was 200 μL (PBS (pH 7.4) with 0.5% DMSO). All data reported as the mean±standard deviation (n=4)."}, "ALDH1A1": {"target": "T1, ALDH1A1 (Homo sapiens, UniProt P00352)", "T1 construct": "inferred from Ni-NTA purification; made in house; host or cells: E. coli BL21(DE3)", "T1 sequence (P00352 1-501)": "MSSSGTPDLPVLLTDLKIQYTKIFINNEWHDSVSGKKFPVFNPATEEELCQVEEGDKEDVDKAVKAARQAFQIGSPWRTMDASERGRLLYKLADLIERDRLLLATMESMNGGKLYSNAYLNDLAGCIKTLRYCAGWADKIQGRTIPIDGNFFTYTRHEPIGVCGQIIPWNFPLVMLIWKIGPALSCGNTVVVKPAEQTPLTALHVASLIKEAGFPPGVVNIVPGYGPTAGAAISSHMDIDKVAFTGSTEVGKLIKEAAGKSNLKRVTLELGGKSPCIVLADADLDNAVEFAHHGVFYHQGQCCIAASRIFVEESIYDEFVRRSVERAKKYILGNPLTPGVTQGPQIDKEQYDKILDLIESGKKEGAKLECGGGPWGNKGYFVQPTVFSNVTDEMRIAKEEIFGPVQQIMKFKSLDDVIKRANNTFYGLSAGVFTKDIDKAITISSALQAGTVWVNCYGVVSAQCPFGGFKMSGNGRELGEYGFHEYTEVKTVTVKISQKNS", "assay": "AlDeLuc isoform selectivity assay", "type": "biochemical", "conditions": "2 μM, pre-activated with HCl, 60 min room temperature", "procedure": "(§1) Expression and Purification of ALDH Expression constructs for recombinant human ALDH1A1, ALDH1A2, ALDH1A3, and ALDH2, ALDH3A1, ALDH4A1, and ALDH5A1 were generously provided by Prof. Daria Mochly-Rosen (Stanford, Chemical and Systems Biology). E. coli BL21(DE3) cells with transformed with each of the above constructs. Colonies were selected from an agar plate containing […] ampicillin and grown overnight (37° C., 220 rpm) in LB media containing […] ampicillin. The overnight culture (10 mL) was inoculated into 1000 mL LB supplemented with […] ampicillin. When the O.D. reached ˜0.5, IPTG was added to a final concentration of 1 mM and incubated overnight (30° C., 200 rpm, 18 h). The cells were harvested via centrifugation (4° C., 4,000 rpm, 90 min) and the cell pellets were stored at −80° C. until purification.\n(§2) ALDH Isoform Activity Determination. The activity of each isoform of ALDH was confirmed by monitoring the production of NADH at 340 nm when incubated with the most used substrate for that enzyme (i.e., benzaldehyde for ALDH3A1 and propionaldehyde for all other isoforms). Each isoform was diluted with 50 mM triethanolamine (TEA, pH 7.4) to a final concentration of 0.5 μM and placed in a 1 mL quartz cuvette. Prior to measurement, NAD^+ was added to a final concentration of 2.5 mM and the preferred substrate was added to a final concentration of 1 mM. Absorbance spectra was taken from 300 to 500 nm every 30 seconds for 15 minutes. Activity for each enzyme was calculated from the slope of absorbance increase at 340 nm over time.\n(§3) AlDeLuc Isoform Selectivity Assay. Activation of AlDeLuc was assessed using the necessary amount of enzyme that gave the activity of 0.5 nmol of substrate turned over/minute. All enzymatic reactions were performed in 50 mM triethanolamine (TEA) buffer (pH 7.4) with 2.5 mM NAD^+. To prepare the probe solution, AlDeLuc was dissolved in DMSO and incubated with 1 M HCl. After an hour, this solution was neutralized with 1 M NaOH, and diluted with PBS. To a clear 24-well plate, TEA buffer, NAD^+, the ALDH isoform, and then AlDeLuc (2 μM) were added sequentially to a final volume of 1 mL. After an hour incubation at room temperature, ATP-MgSO4 (45 μL, prepared by mixing 17.78 mM ATP-Mg and 35.56 mM MgSO4 in a 1:1 ratio in PBS buffer) and luciferase (5 μL, 1 mg/mL in PBS containing 10% glycerol) were added to initiate bioluminescence production. The wells were immediately imaged using the IVIS imaging system in open mode. ROIs were drawn around each well and the signal intensity was quantified using the Living Image Analysis. The signal enhancement was normalized relative to the ALDH2 isoform."}, "ALDH2": {"target": "T2, ALDH2 (Homo sapiens, UniProt P05091)", "T2 construct": "inferred from Ni-NTA purification; made in house; host or cells: E. coli BL21(DE3)", "T2 sequence (P05091 18-517)": "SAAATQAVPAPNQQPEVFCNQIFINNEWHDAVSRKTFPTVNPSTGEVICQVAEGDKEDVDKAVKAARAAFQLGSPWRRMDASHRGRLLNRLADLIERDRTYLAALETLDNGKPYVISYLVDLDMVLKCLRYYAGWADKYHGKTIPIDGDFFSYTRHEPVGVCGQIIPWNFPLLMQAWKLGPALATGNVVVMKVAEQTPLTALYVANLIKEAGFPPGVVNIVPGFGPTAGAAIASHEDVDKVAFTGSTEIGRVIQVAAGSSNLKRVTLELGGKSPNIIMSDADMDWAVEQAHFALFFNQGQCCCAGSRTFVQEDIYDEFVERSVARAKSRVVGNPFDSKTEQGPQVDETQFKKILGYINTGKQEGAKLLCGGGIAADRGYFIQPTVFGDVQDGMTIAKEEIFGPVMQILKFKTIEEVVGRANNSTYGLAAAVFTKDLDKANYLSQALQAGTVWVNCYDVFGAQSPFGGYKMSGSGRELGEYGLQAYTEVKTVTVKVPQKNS", "assay": "AlDeLuc isoform selectivity assay", "type": "biochemical", "conditions": "2 μM, pre-activated with HCl, 60 min room temperature", "procedure": "as §1, §2, §3"}, "ALDH3A1": {"target": "T3, ALDH3A1 (Homo sapiens, UniProt P30838)", "T3 construct": "inferred from Ni-NTA purification; made in house; host or cells: E. coli BL21(DE3)", "T3 sequence (P30838 whole entry, canonical isoform)": "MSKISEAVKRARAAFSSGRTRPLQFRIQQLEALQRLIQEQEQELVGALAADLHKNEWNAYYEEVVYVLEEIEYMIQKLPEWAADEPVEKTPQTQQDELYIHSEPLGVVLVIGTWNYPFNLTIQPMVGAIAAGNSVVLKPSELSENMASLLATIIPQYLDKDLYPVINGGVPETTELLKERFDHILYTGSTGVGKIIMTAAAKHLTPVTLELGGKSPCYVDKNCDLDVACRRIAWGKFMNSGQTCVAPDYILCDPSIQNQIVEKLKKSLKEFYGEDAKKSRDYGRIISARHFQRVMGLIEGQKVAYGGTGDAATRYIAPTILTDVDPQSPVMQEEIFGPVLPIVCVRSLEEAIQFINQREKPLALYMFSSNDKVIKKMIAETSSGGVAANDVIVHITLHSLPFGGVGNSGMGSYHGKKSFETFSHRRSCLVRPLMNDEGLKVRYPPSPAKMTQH", "assay": "AlDeLuc isoform selectivity assay", "type": "biochemical", "conditions": "2 μM, pre-activated with HCl, 60 min room temperature", "procedure": "as §1, §2, §3"}, "ALDH4A1": {"target": "T4, ALDH4A1 (Homo sapiens, UniProt P30038)", "T4 construct": "inferred from Ni-NTA purification; made in house; host or cells: E. coli BL21(DE3)", "T4 sequence (P30038 25-563)": "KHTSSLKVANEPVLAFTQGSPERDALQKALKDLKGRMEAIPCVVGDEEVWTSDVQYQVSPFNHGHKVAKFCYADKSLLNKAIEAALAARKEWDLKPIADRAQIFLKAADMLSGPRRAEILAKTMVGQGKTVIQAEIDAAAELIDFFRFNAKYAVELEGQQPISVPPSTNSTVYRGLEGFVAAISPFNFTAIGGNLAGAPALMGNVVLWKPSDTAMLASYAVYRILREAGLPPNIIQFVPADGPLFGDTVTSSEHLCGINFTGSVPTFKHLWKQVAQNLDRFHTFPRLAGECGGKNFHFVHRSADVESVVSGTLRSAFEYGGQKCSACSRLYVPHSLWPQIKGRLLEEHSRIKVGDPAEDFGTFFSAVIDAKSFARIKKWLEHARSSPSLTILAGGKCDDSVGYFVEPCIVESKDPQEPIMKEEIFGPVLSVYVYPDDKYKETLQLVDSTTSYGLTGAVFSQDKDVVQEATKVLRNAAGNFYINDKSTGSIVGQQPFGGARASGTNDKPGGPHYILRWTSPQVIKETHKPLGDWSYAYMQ", "assay": "AlDeLuc isoform selectivity assay", "type": "biochemical", "conditions": "2 μM, pre-activated with HCl, 60 min room temperature", "procedure": "as §1, §2, §3"}, "ALDH1A3": {"target": "T5, ALDH1A3 (Homo sapiens, UniProt P47895)", "T5 construct": "inferred from Ni-NTA purification; made in house; host or cells: E. coli BL21(DE3)", "T5 sequence (P47895 whole entry, canonical isoform)": "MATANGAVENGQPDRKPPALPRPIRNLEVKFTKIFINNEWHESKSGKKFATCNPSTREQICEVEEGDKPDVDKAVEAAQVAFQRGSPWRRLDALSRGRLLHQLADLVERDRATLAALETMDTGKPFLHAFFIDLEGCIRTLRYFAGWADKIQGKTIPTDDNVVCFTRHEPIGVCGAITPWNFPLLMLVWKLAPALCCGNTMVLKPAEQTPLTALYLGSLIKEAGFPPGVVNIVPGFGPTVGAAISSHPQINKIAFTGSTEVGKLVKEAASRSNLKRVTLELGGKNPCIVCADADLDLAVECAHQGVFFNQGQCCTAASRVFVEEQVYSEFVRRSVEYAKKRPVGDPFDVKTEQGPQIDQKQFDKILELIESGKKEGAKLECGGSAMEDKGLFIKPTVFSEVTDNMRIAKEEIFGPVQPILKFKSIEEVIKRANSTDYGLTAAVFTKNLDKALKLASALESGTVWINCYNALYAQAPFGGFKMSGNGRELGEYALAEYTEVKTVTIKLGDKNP", "assay": "AlDeLuc isoform selectivity assay", "type": "biochemical", "conditions": "2 μM, pre-activated with HCl, 60 min room temperature", "procedure": "as §1, §2, §3"}, "ALDH1A2": {"target": "T6, ALDH1A2 (Homo sapiens, UniProt O94788)", "T6 construct": "inferred from Ni-NTA purification; made in house; host or cells: E. coli BL21(DE3)", "T6 sequence (O94788 whole entry, canonical isoform)": "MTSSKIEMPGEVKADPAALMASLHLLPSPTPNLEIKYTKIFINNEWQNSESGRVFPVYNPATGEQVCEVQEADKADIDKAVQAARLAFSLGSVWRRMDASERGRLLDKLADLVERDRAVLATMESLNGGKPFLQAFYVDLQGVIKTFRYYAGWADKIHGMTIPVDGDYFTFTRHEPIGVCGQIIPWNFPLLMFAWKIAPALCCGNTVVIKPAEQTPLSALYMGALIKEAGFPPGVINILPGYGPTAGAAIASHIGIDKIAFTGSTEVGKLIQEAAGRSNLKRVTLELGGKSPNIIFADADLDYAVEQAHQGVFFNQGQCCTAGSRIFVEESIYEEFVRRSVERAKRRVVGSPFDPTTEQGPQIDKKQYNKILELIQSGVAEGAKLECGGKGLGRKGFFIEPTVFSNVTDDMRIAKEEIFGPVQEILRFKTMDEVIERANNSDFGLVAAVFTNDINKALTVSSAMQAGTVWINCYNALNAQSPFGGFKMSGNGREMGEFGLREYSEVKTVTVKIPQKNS", "assay": "AlDeLuc isoform selectivity assay", "type": "biochemical", "conditions": "2 μM, pre-activated with HCl, 60 min room temperature", "procedure": "as §1, §2, §3"}, "ALDH5A1": {"target": "T7, ALDH5A1 (Homo sapiens, UniProt P51649)", "T7 construct": "inferred from Ni-NTA purification; made in house; host or cells: E. coli BL21(DE3)", "T7 sequence (P51649 48-535)": "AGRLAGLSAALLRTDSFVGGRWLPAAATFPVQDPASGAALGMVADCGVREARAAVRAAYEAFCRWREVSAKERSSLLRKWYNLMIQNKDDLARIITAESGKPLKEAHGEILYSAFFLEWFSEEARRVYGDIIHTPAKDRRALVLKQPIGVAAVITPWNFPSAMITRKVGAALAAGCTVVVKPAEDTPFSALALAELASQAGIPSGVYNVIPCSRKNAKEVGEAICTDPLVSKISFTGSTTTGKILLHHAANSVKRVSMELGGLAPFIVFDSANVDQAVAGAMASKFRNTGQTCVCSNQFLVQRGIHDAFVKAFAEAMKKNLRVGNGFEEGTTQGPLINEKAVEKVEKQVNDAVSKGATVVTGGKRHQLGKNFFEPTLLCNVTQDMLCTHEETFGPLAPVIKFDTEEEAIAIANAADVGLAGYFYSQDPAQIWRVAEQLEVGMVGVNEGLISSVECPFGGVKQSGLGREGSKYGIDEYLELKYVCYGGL", "assay": "AlDeLuc isoform selectivity assay", "type": "biochemical", "conditions": "2 μM, pre-activated with HCl, 60 min room temperature", "procedure": "as §1, §2, §3"}, "BALB/c mice": {"tested_on": "BALB/c mice", "assay": "Evaluation of systemic toxicity of AlDeLuc, H&E staining of organs", "type": "in vivo", "conditions": "0.55 mg/kg systemic (retro-orbital); four hours", "procedure": "Evaluation of Systemic Toxicity of AlDeLuc in BALB c mice. BALB/c mice were anesthetized and administered AlDeLuc or vehicle via retro-orbital injection (0.55 mg/kg, 1:19 v/v DMSO:PBS). After four hours, mice were euthanized, and their organs were harvested, fixed in formalin, and submitted to Veterinary Medicine for Hematoxylin and eosin staining."}, "[2]": {"assay": "Stability in PBS or serum-containing media", "type": "physicochemical"}}}
{"smiles": "CCN(CC)c1ccc2nc(C3=N[C@@H](C(OC)OC)CS3)sc2c1", "note": "[AlDeLuc, (S)-2-(4-(dimethoxymethyl)-4,5-dihydrothiazol-2-yl)-N,N-diethylbenzo[d]thiazol-6-amine]", "values": [{"measurement": "acid resistance of acetal (bioluminescence emission after HCl, neutralization, ALDH1A1 and luciferase)", "setting": "[1]", "value": "most acid-resistant"}, {"measurement": "bioluminescence", "setting": "ALDH1A1", "value": "significant bioluminescence"}, {"measurement": "bioluminescence", "setting": "ALDH2", "value": "only treatment with ALDH1A1 and luciferase generated significant bioluminescence"}, {"measurement": "bioluminescence", "setting": "ALDH3A1", "value": "only treatment with ALDH1A1 and luciferase generated significant bioluminescence"}, {"measurement": "bioluminescence", "setting": "ALDH4A1", "value": "only treatment with ALDH1A1 and luciferase generated significant bioluminescence"}, {"measurement": "bioluminescence", "setting": "ALDH1A3", "value": "only treatment with ALDH1A1 and luciferase generated significant bioluminescence"}, {"measurement": "bioluminescence", "setting": "ALDH1A2", "value": "only treatment with ALDH1A1 and luciferase generated significant bioluminescence"}, {"measurement": "bioluminescence", "setting": "ALDH5A1", "value": "only treatment with ALDH1A1 and luciferase generated significant bioluminescence"}, {"measurement": "H&E stains of spleen, kidneys, lungs, heart, liver compared to vehicle animals", "setting": "BALB/c mice", "value": "indistinguishable"}, {"measurement": "hydrolysis", "setting": "[2]; PBS", "value": "does not hydrolyze"}, {"measurement": "hydrolysis", "setting": "[2]; serum-containing media", "value": "does not hydrolyze"}]}
